Source: patent publication US20230391792A1, “METHODS AND COMPOSITIONS FOR TARGETED PROTEIN DEGRADATION” (Ranok Therapeutics (Hangzhou) Co. Ltd., priority 2020, published 2023)

Molecular target: T1, HSP90α protein (N-terminal) (Homo sapiens, UniProt P07900)
T1 construct: purchased BPS Bioscience #50298
Assay: HSP90α-binding fluorescent polarization (FP) assay, competition with BODIPY-labeled RNK04010
Conditions: probe RNK04010 (BODIPY-labeled) 5 nM, 25° C. 300 min
Procedure: Binding of test compounds to HSP90α protein was measured by fluorescent polarization (FP) using the HSP90α (N-terminal) Assay Kit (BPS Bioscience, #50298), following the manufacturer's instructions, except as noted. Fluorescently labeled HSP90-binding compounds, either the provided FITC-geldanamycin (5 nM final concentration) or RNK04010, a triazolone-based HSP90-binding small molecule labeled with BODIPY through a piperizine-phenyl linker (5 nM final concentration) were employed. A 2.5-fold serial dilution of each test compound ranging from 20 μM to 5.2 nM was assayed for binding to HSP90α. After the final step of adding HSP90α protein to each assay well, plates were mixed by brief shaking, incubated at 25° C. for 120 min for FITC-geldanamycin or 300 min for RNK04010, and fluorescence was measured using a PerkinElmer EnVision Plate Reader.
HSP90α-binding fluorescent polarization (FP) assays measuring competition with the fluorescently labeled HSP90 binders, FITC-geldanamycin or RNK04010 (BODIPY-labeled), were applied to assess the binding capabilities of CHAMP molecules to HSP90.

SMILES | IC50 [nM]
Cc1sc2c(c1C)C(c1ccc(Cl)cc1)=N[C@@H](CC(=O)N1CCC(CCN3CCC(Cc4ccc(-n5c(O)nnc5-c5cc(C(C)C)c(O)cc5O)cc4)CC3)CC1)c1nnc(C)n1-2 [Compound 55] | < 100
Cc1sc2c(c1C)C(c1ccc(Cl)cc1)=N[C@@H](CC(=O)N[C@H](C)c1cccc(CN3CCC(Cc4ccc(-n5c(O)nnc5-c5cc(C(C)C)c(O)cc5O)cc4)CC3)c1)c1nnc(C)n1-2 [Compound 56] | < 100
CCNC(=O)c1nnc(-c2cc(CC)c(O)cc2O)n1-c1ccc(CN2CCN(CC3CCN(C(=O)C[C@@H]4N=C(c5ccc(Cl)cc5)c5c(sc(C)c5C)-n5c(C)nnc54)CC3)CC2)cc1 [Compound 59] | < 100
Cc1sc2c(c1C)C(c1ccc(Cl)cc1)=N[C@@H](CC(=O)NCc1ccc(CN3CCC(Cc4ccc(-n5c(O)nnc5-c5cc(C(C)C)c(O)cc5O)cc4)CC3)cc1)c1nnc(C)n1-2 [Compound 60] | < 100
Cc1sc2c(c1C)C(c1ccc(Cl)cc1)=N[C@@H](CC(=O)N(C)[C@@H](C)c1ccc(CN3CCC(Cc4ccc(-n5c(O)nnc5-c5cc(C(C)C)c(O)cc5O)cc4)CC3)cc1)c1nnc(C)n1-2 [Compound 63] | 100 to 1000
CCN(Cc1ccc(OCCCNC(=O)C[C@@H]2N=C(c3ccc(Cl)cc3)c3c(sc(C)c3C)-n3c(C)nnc32)cc1)Cc1ccc(-n2c(C(=O)NCC(F)(F)F)nnc2-c2cc(C(C)C)c(O)cc2O)cc1 [Compound 72] | 100 to 1000
CCc1cc(-c2nnc(C(=O)NC(C)C)n2-c2ccc(CN3CCN(CC4CCN(C(=O)C[C@@H]5N=C(c6ccc(Cl)cc6)c6c(sc(C)c6C)-n6c(C)nnc65)CC4)CC3)cc2)c(O)cc1O [Compound 74] | < 100
Cc1sc2c(c1C)C(c1ccc(Cl)cc1)=N[C@@H](CC(=O)N1CCC(CN3CCN(Cc4ccc(-n5c(C(=O)NCCN6CCCCC6)nnc5-c5cc(C(C)C)c(O)cc5O)cc4)CC3)CC1)c1nnc(C)n1-2 [Compound 76] | < 100
Cc1sc2c(c1C)C(c1ccc(Cl)cc1)=N[C@@H](CC(=O)N1CCC(CN3CCN(Cc4ccc(-n5c(C(=O)NC(C)C)nnc5-c5cc(C(C)C)c(O)cc5O)cc4)CC3)CC1)c1nnc(C)n1-2 [Compound 77] | 100 to 1000
Cc1sc2c(c1C)C(c1ccc(Cl)cc1)=N[C@@H](CC(=O)N1CCC(CN3CCN(Cc4ccc(-n5c(C(N)=O)nnc5-c5cc(C(C)C)c(O)cc5O)cc4)CC3)CC1)c1nnc(C)n1-2 [Compound 78] | < 100
CCc1cc(-c2nnc(C(=O)NCCN3CCCCC3)n2-c2ccc(CN3CCN(CC4CCN(C(=O)C[C@@H]5N=C(c6ccc(Cl)cc6)c6c(sc(C)c6C)-n6c(C)nnc65)CC4)CC3)cc2)c(O)cc1O [Compound 82] | < 100
COc1cccc(-c2cc(C(=O)Nc3ccc(-c4ccc(OC5CCN(C)CC5)cc4OCCN(C)C(=O)CNC(=O)C[C@@H]4N=C(c5ccc(Cl)cc5)c5c(sc(C)c5C)-n5c(C)nnc54)cc3)ccc2OC)c1 [Compound 83] | > 1000
COc1cccc(-c2cc(C(=O)Nc3ccc(-c4ccc(OC5CCN(C(=O)C[C@@H]6N=C(c7ccc(Cl)cc7)c7c(sc(C)c7C)-n7c(C)nnc76)CC5)cc4OCCN(C)C)cc3)ccc2OC)c1 [Compound 84] | > 1000
CCN(CC)CCNC(=O)c1nnc(-c2cc(C(C)C)c(O)cc2O)n1-c1ccc(CN2CCN(CC3CCN(C(=O)C[C@@H]4N=C(c5ccc(Cl)cc5)c5c(sc(C)c5C)-n5c(C)nnc54)CC3)CC2)cc1 [Compound 90] | < 100
Cc1sc2c(c1C)C(c1ccc(Cl)cc1)=N[C@@H](CC(=O)N1CCC(CN3CCN(Cc4ccc(-n5c(C(=O)NC(C)C)nnc5-c5ccc(O)cc5O)cc4)CC3)CC1)c1nnc(C)n1-2 [Compound 91] | < 100
CCCc1cc(-c2nnc(C(=O)NCCN3CCCCC3)n2-c2ccc(CN3CCN(CC4CCN(C(=O)C[C@@H]5N=C(c6ccc(Cl)cc6)c6c(sc(C)c6C)-n6c(C)nnc65)CC4)CC3)cc2)c(O)cc1O [Compound 92] | < 100
Cc1cc(C(=O)N2Cc3ccc(CN4CCN(C(=O)C[C@@H]5N=C(c6ccc(Cl)cc6)c6c(sc(C)c6C)-n6c(C)nnc65)CC4)c(F)c3C2)c(O)cc1O [Compound 99] | > 1000
Cc1sc2c(c1C)C(c1ccc(Cl)cc1)=N[C@@H](CC(=O)N1CCN(Cc3ccc4c(c3F)CN(C(=O)c3cc(C(C)C)c(O)cc3O)C4)CC1)c1nnc(C)n1-2 [Compound 100] | 100 to 1000
CCc1cc(-c2nnc(C(=O)NC3CC3)n2-c2ccc(CN3CCN(CC4CCN(C(=O)C[C@@H]5N=C(c6ccc(Cl)cc6)c6c(sc(C)c6C)-n6c(C)nnc65)CC4)CC3)cc2)c(O)cc1O [Compound 101] | < 100
CCc1cc(-c2nnc(C(=O)NC(C)C)n2-c2ccc(CN3CCN(CC4CCN(C(=O)C[C@@H]5N=C(c6ccc(Cl)cc6)c6c(sc(C)c6C)-n6c(C)nnc65)CC4)CC3)cc2)c(O)cc1O [Compound 102] | < 100

Results, then the compound that gave them:

IC50 [nM] | SMILES
100 to 1000 | CCc1cc(-c2nnc(C(=O)NC(CC)CC)n2-c2ccc(CN3CCN(CC4CCN(C(=O)C[C@@H]5N=C(c6ccc(Cl)cc6)c6c(sc(C)c6C)-n6c(C)nnc65)CC4)CC3)cc2)c(O)cc1O [Compound 103]
< 100 | CCc1cc(-c2nnc(C(=O)NC3(C)CC3)n2-c2ccc(CN3CCN(CC4CCN(C(=O)C[C@@H]5N=C(c6ccc(Cl)cc6)c6c(sc(C)c6C)-n6c(C)nnc65)CC4)CC3)cc2)c(O)cc1O [Compound 104]
100 to 1000 | CCc1cc(-c2nnc(C(=O)NC(C)C(F)(F)F)n2-c2ccc(CN3CCN(CC4CCN(C(=O)C[C@@H]5N=C(c6ccc(Cl)cc6)c6c(sc(C)c6C)-n6c(C)nnc65)CC4)CC3)cc2)c(O)cc1O (stereo partly shown) [Compound 105]
100 to 1000 | Cc1sc2c(c1C)C(c1ccc(Cl)cc1)=N[C@@H](CC(=O)N1CCN(Cc3ccc(-n4c(O)nnc4-c4cc(C(C)C)c(O)cc4O)cc3)[C@H](C)C1)c1nnc(C)n1-2 [Compound 106]
100 to 1000 | Cc1sc2c(c1C)C(c1ccc(Cl)cc1)=N[C@@H](CC(=O)N1CCN(Cc3ccc(-n4c(O)nnc4-c4cc(C(C)C)c(O)cc4O)cc3)[C@@H](C)C1)c1nnc(C)n1-2 [Compound 107]
> 1000 | COc1cc(O)c(C(C)C)cc1-c1nnc(O)n1-c1ccc(CN2CCN(CC3CCN(C(=O)C[C@@H]4N=C(c5ccc(Cl)cc5)c5c(sc(C)c5C)-n5c(C)nnc54)CC3)CC2)cc1 [Compound 108]
100 to 1000 | Cc1sc2c(c1C)C(c1ccc(Cl)cc1)=N[C@@H](CC(=O)N1CCC(Cc3ccc(CN(C)Cc4ccc(-n5c(C(=O)NCC(F)(F)F)nnc5-c5cc(C(C)C)c(O)cc5O)cc4)cn3)CC1)c1nnc(C)n1-2 [Compound 109]
> 1000 | CCOc1cc(N2CCC(C(=O)NCc3ccc(-n4c(O)nnc4-c4ccc(O)cc4O)cc3)CC2)ccc1Nc1ncc2c(n1)N(C)c1ccccc1C(=O)N2C [Compound 119]
100 to 1000 | CCOc1cc(N2CCC(C(=O)NCc3ccc(-n4c(O)nnc4-c4cc(C)c(O)cc4O)cc3)CC2)ccc1Nc1ncc2c(n1)N(C)c1ccccc1C(=O)N2C [Compound 120]
> 1000 | CCCc1cc(-c2nnc(O)n2-c2ccc(CNC(=O)C3CCN(c4ccc(Nc5ncc6c(n5)N(C)c5ccccc5C(=O)N6C)c(OCC)c4)CC3)cc2)c(O)cc1O [Compound 121]
100 to 1000 | CCOc1cc(N2CCC(C(=O)NCc3ccc(-n4c(O)nnc4-c4cc(C(C)C)c(O)cc4O)cc3C(F)(F)F)CC2)ccc1Nc1ncc2c(n1)N(C)c1ccccc1C(=O)N2C [Compound 122]
> 1000 | CCOc1cc(N2CCC(C(=O)NCc3ccc(-n4c(O)nnc4-c4cc(CC)c(O)cc4O)cc3F)CC2)ccc1Nc1ncc2c(n1)N(C)c1ccccc1C(=O)N2C [Compound 125]
100 to 1000 | CCCc1cc(-c2nnc(O)n2-c2ccc(CN3CCN(C(=O)C4CCN(c5ccc(Nc6ncc7c(n6)N(C)c6ccccc6C(=O)N7C)c(OCC)c5)CC4)CC3)cc2)c(O)cc1O [Compound 128]
100 to 1000 | CCOc1cc(N2CCC(C(=O)NCc3ccc(CN4CCC(Cc5ccc(-n6c(C(=O)NC(C)C)nnc6-c6cc(C(C)C)c(O)cc6O)cc5)CC4)cc3)CC2)ccc1Nc1ncc2c(n1)N(C)c1ccccc1C(=O)N2C [Compound 130]
> 1000 | COc1cccc(-c2cc(C(=O)Nc3ccc(-c4ccc(OC5CCN(C(=O)C[C@@H]6N=C(c7ccc(Cl)cc7)c7c(sc(C)c7C)-n7c(C)nnc76)CC5)cc4O)cc3)ccc2OC)c1 [Compound 131]
> 1000 | COc1cccc(-c2cc(C(=O)Nc3ccc(-c4ccc(OC5CCN(C(=O)CNC(=O)N[C@@H]6N=C(c7ccc(Cl)cc7)c7c(sc(C)c7C)-n7c(C)nnc76)CC5)cc4O)cc3)ccc2OC)c1 [Compound 132]
> 1000 | COc1cccc(-c2cc(C(=O)Nc3ccc(-c4ccc(OC5CCN(C)CC5)cc4COCN(C)CC[C@@H]4N=C(c5ccc(Cl)cc5)c5c(sc(C)c5C)-n5c(C)nnc54)cc3)ccc2OC)c1 [Compound 133]
100 to 1000 | CCOc1cc(N2CCC(C(=O)N3CCN(CCOc4ccc(Nc5cc(-n6nc(C(F)(F)F)c7c6CC(C)(C)CC7=O)ccc5C(N)=O)cc4)CC3)CC2)ccc1Nc1ncc2c(n1)N(C)c1ccccc1C(=O)N2C [Compound 149]
> 1000 | CCOc1cc(N2CCC(C(=O)NCCCNC(=O)O[C@H]3CC[C@H](Nc4cc(-n5nc(C(F)(F)F)c6c5CC(C)(C)CC6=O)ccc4C(N)=O)CC3)CC2)ccc1Nc1ncc2c(n1)N(C)c1ccccc1C(=O)N2C [Compound 150]
> 1000 | CCOc1cc(N2CCC(C(=O)NCCOCCNC(=O)O[C@H]3CC[C@H](Cc4cc(-n5nc(C)c6c5CC(C)(C)CC6=O)ccc4C(N)=O)CC3)CC2)ccc1N(CC)c1ncc2c(n1)N(C)c1ccccc1C(=O)N2C [Compound 151]
